The nature of series [1]: Cytotoxicity in MDBK cells (no BVD virus added). The following applies: bovine, MDBK cells (Madin-Darby bovine kidney), no virus added.
Series [2] has as its system Bovine viral diarrhea (BVD) virus. Briefly: Anti-BVDV CPE inhibition assay in MDBK cells. Conditions: for SI (selectivity index, ratio of CC50 and EC50): CC50/EC50, MDBK cells, BVD virus.
Series [3] relates to classical swine fever virus (CSFV) strain Alfort 187. Briefly: microbe, parasite or virus in culture. The format is cell-based. Conditions: PK-15, in Sus scrofa, 48 h.
A further series concerns BVDV type 2 strain 1373. Conditions: 5 mg/kg i.v. 2x daily; for Animals showing signs of dehydration / Samples virus isolation positive for BVDV in total / Adverse side effects on serial complete blood cell counts or serum chemistry panels / Period in which leukopenia (<5000 leukocytes/μL) was seen / Adverse drug reactions on daily clinical monitoring / Clinical scores compared to calves receiving diluent only: 10 days; for Buffy coat samples virus isolation positive: Days 6-10, 20 samples per group; for Samples virus isolation positive for BVDV in total: all sample types and time points; for Nasal swab samples virus isolation positive: by Day 12, 28 samples per group; for Adverse side effects on serial complete blood cell counts or serum chemistry panels / Period in which leukopenia (<5000 leukocytes/μL) was seen / Adverse drug reactions on daily clinical monitoring: calves; for Adverse drug reactions on daily clinical monitoring: Day 0 to Day 28; for Clinical scores compared to calves receiving diluent only: composite of dehydration, appearance, appetite, diarrhea.

Series [4] concerns MDBK cells (Madin-Darby bovine kidney). Briefly: Cytotoxicity in MDBK cells (no BVD virus added). The following applies: MDBK cells, no virus, 50% toxic effects.
Setting [5] is: Bovine viral diarrhea virus isolates and strains, MDBK, in Bos taurus, 96 h.

Some results are limits rather than exact numbers.

As usually defined, the CC50 is the concentration giving 50% cytotoxicity. A high value points to lower toxicity to the cells. As usually defined, the EC50 is the concentration that produces a half-maximal response. Higher therefore signals a less potent agent. Regarding `Cc1ccc2nc(Cn3ccc4nc(-c5cn(C)nc5C)nc-4c3)sc2c1` [CPD-10, 2-((2-(1,3-dimethyl-1H-pyrazol-4-yl)-5H-imidazo[4,5-c]pyridin-5-yl)methyl)-6-methylbenzo[d]thiazole], in series [1], it took 231000 nM to reach half-maximal cytotoxicity (CC50 at 4 days). In series [2] (setting [5]), the EC50 was 80 ± 32 nM. In series [2], the “SI (selectivity index, ratio of CC50 and EC50)” value is recorded as 2888. In addition, in series [3], a half-maximal effect (EC50) was put at 4300 ± 1900 nM. In the series on BVDV type 2 strain 1373, the “Animals showing signs of dehydration” value is recorded as “None”, the “Buffy coat samples virus isolation positive” value came to 55%, the “Samples virus isolation positive for BVDV in total” value amounted to 32 samples and the “Nasal swab samples virus isolation positive” value came out at 43%. Moreover, in the series on BVDV type 2 strain 1373, the “Adverse side effects on serial complete blood cell counts or serum chemistry panels” value is reported as “No evidence of adverse side effects”, the “Period in which leukopenia (<5000 leukocytes/μL) was seen” value lay in the range of 6 to 8 days, the “Adverse drug reactions on daily clinical monitoring” value is given as “No signs of adverse drug reactions were observed” and the “Clinical scores compared to calves receiving diluent only” value is reported as “attenuated clinical scores”.

As for `Cc1ccc2nc(Cn3ccc4nc(-c5cnn(C)c5C)nc-4c3)sc2c1` [CPD-1, 2-((2-(1,5-dimethyl-1H-pyrazol-4-yl)-5H-imidazo[4,5-c]pyridin-5-yl)methyl)-6-methylbenzo[d]thiazole], the CC50 at 4 days in series [1] was 231000 nM. In addition, the EC50 in series [2] (setting [5]) was found to be 13 ± 5 nM; in series [3], 300 ± 100 nM. Moreover, the “SI (selectivity index, ratio of CC50 and EC50)” value in series [2] turned out to be 17769.

In series [4], `OCc1ccccc1-c1cc2ccn(Cn3nnc4ccccc43)cc-2n1` [Compound V, [2-(6-((1H-Benzotriazol)-1-yl)methyl-6H-pyrrolo[2,3-c]pyridin-2-yl)-phenyl]-methanol] registered a cytotoxic concentration (CC50) of more than 50000 nM. This compound had an EC50 in series [2] (BVD virus approx. 100 TCID50, MDBK cells, four days, 50% inhibition of CPE) of 81 ± 1 nM.

Consider `Fc1ccc(OC(F)(F)F)cc1-c1nc2ccn(Cn3nnc4ccccc43)cc-2n1` [CPD-40, 1-((2-(2-fluoro-5-(trifluoromethoxy)phenyl)-5H-imidazo[4,5-c]pyridin-5-yl)methyl)-1H-benzo[d][1,2,3]triazole], for which, in series [1], it took 48000 nM to reach half-maximal cytotoxicity (CC50 at 4 days). Further, the results for the EC50 in series [2] (setting [5]) and in series [3] were 89 ± 18 nM and 5900 nM, respectively. Also, the “SI (selectivity index, ratio of CC50 and EC50)” value in series [2] turned out to be 539.

With `Cc1c(-c2nc3ccn(Cc4cc(-c5cc(F)ccc5F)no4)cc-3n2)cnn1C` [CPD-7, 3-(2,5-difluorophenyl)-5-((2-(1,5-dimethyl-1H-pyrazol-4-yl)-5H-imidazo[4,5-c]pyridin-5-yl)methyl)isoxazole], in series [1], it took 212000 nM to reach half-maximal cytotoxicity (CC50 at 4 days). In series [2] (setting [5]), the 50% effective concentration (EC50) was 53 ± 25 nM. In addition, the “SI (selectivity index, ratio of CC50 and EC50)” value in series [2] is 4000. This compound also had a half-maximal effective concentration (EC50) in series [3] of 1300 ± 500 nM. Further, in the series on BVDV type 2 strain 1373, the “Animals showing signs of dehydration” value is reported as “None”, the “Buffy coat samples virus isolation positive” value came to 50%, the “Samples virus isolation positive for BVDV in total” value worked out at 28 samples and the “Nasal swab samples virus isolation positive” value is recorded as 29%. Moreover, in the series on BVDV type 2 strain 1373, the “Adverse side effects on serial complete blood cell counts or serum chemistry panels” value is “No evidence of adverse side effects”, the “Period in which leukopenia (<5000 leukocytes/μL) was seen” value is 6 to 12 days, the “Adverse drug reactions on daily clinical monitoring” value is reported as “No signs of adverse drug reactions were observed” and the “Clinical scores compared to calves receiving diluent only” value is reported as “attenuated clinical scores”.
